Active and inactive are the calls of the source.
Tests used:
[1] = biological target: T1, Sentrin-specific protease 1 (Homo sapiens, UniProt Q9P0U3); experiment: potency of human SENP1 inhibitors, dose response, biochemical, kinetic FRET (AID 651697); format: functional; conditions: read-out: IC50_Mean
[2] = biological target: T1, Sentrin-specific protease 1; experiment: Dose response confirmation of small molecule inhibitors of the catalytic domain of the SUMO protease, SENP1 in a FRET assay.; format: functional; conditions: read-out: IC50_Mean
[3] = biological target: ADP-ribosylation factor GTPase-activating protein 1 (Rattus norvegicus, UniProt Q62848); experiment: Fluorescence polarization-based biochemical high throughput dose response screening assay to identify inhibitors of ADP-ribosylation factor GTPase activating protein 1 (ARFGAP1).; format: functional
[4] = biological target: Broad substrate specificity ATP-binding cassette transporter ABCG2 (Homo sapiens, UniProt Q9UNQ0); experiment: ABCG2 efflux pump inhibitors, dose response, Ig-MXP3 cells, flow cytometry (AID 1690); format: functional
[5] = inhibitors of intracellular T. cruzi replication, confirmation, NIH3T3 host cells, beta-gal luminescence (AID 2044); format: functional, cell-based;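 further: intracellular parasites grown in NIH/3T3 mouse fibroblasts as host cells; luminescent beta-galactosidase reporter signal from transgenic T. cruzi replicating inside host cells; inhibitors lower the luminescence signal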
[6] = microbe, parasite or virus in culture; format: functional; conditions: Mycobacterium tuberculosis
[7] = cytotoxicity toward NIH3T3 fibroblasts, dose response, counter-screen, cell-based, ATP luminescence, mouse fibroblasts (AID 2010); format: functional;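 further: cells exposed to compound for about 90 hours before reading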
[8] = tested on: Saccharomyces cerevisiae; experiment: NALP1 inhibitor project selectivity study, Caspase-1/ASC signal blockade IC50 in S. cerevisiae (AID 488863); format: functional, organism-based
[9] = Luminescence Cell-Based Dose Retest to Confirm Inhibitors of Cancer Stem Cells. [Related pubchem assays (depositor defined):AID2717, AID2721]; format: functional; conditions: Homo sapiens
[10] = biological target: T2, NACHT, LRR and PYD domains-containing protein 1 (Homo sapiens, UniProt Q9C000); experiment: NALP1 inhibitors in yeast, dose response, luminescent (AID 488860); format: functional
T2 sequence (Q9C000 whole entry): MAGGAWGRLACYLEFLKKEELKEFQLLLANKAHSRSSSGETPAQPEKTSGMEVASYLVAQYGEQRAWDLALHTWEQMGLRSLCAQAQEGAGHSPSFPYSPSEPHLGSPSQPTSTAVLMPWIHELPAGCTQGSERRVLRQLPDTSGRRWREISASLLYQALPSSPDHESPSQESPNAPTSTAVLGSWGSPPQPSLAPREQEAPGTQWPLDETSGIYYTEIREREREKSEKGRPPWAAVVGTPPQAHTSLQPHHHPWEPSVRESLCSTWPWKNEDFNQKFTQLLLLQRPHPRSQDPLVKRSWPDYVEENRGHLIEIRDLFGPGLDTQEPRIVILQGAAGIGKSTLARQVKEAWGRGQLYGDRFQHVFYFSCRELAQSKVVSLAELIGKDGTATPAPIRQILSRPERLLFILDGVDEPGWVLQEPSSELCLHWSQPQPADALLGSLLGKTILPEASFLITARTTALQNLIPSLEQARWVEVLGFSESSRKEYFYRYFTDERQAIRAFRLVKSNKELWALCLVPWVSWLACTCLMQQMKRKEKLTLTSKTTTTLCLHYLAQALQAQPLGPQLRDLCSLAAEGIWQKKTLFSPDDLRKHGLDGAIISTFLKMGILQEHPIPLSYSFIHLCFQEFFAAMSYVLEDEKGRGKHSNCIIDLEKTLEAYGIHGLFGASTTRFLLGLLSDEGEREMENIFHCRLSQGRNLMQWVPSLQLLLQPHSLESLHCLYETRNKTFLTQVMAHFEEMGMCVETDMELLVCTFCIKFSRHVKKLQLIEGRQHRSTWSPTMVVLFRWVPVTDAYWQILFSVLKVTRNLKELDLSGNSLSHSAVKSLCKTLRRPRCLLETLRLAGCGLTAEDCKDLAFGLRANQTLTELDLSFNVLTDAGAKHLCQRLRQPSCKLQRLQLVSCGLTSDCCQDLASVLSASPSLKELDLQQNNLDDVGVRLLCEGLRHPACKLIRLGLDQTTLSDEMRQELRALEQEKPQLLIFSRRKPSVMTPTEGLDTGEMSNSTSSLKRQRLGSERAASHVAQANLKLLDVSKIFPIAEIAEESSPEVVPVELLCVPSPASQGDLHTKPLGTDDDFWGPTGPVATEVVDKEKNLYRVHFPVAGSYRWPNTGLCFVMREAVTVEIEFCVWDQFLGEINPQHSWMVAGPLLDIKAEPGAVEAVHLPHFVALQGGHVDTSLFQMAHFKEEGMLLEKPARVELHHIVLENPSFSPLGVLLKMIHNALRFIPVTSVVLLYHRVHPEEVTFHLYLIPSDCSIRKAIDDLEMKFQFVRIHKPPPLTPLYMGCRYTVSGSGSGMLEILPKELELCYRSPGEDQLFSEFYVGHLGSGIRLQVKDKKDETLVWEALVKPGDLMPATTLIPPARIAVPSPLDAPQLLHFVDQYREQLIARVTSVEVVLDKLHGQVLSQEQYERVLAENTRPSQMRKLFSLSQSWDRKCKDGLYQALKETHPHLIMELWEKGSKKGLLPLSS

[11] = MDA-MB-231 cell growth inhibition, dose response, cytotoxicity control for RAD54 inhibitor project, CellTiter-Glo luminescence, cherry-pick (AID 651692); format: functional, cell-based
[12] = biological target: T3, DNA repair and recombination protein RAD54-like (Homo sapiens, UniProt Q92698); experiment: inhibitors of human RAD54 branch migration, confirmation, biochemical, fluorescence, cherry-picked samples, dose series (AID 651657); format: functional
T3 sequence (Q92698 whole entry): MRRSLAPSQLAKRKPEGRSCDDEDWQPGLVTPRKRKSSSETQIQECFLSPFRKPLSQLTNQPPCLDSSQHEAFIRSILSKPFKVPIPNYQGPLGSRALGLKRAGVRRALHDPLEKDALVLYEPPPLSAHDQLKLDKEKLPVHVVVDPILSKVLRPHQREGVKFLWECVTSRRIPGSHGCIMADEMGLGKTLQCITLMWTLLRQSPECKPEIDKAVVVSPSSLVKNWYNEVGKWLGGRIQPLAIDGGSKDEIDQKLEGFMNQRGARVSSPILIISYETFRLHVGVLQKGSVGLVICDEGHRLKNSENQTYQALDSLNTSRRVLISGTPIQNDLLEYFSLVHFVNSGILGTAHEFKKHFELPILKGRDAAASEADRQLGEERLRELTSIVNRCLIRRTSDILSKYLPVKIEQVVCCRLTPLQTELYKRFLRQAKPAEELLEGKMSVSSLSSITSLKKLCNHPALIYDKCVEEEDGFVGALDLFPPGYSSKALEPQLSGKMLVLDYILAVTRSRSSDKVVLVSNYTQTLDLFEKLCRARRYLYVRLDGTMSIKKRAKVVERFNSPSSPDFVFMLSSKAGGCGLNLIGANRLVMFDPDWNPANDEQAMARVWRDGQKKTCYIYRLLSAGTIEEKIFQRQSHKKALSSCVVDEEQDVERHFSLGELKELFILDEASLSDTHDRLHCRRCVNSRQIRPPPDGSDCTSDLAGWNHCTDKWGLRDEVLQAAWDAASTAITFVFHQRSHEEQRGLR

[13] = biological target: T4, DNA repair protein RAD52 homolog (Homo sapiens, UniProt P43351); format: functional, biochemical
T4 sequence (P43351 whole entry): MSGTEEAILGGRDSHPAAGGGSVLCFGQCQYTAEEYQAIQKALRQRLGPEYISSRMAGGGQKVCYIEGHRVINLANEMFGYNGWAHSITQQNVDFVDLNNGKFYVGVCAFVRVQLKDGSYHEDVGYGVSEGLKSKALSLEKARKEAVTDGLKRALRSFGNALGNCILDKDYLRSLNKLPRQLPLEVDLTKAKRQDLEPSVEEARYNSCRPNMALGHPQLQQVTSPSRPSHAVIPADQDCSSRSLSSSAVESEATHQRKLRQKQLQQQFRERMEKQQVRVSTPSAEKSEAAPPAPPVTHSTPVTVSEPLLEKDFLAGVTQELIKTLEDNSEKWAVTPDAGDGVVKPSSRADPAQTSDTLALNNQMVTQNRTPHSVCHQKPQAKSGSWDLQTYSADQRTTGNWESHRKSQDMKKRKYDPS

[14] = HeLa cell cytotoxicity, dose response, cytotoxicity control for MgcRacGAP inhibitor project (AID 624300); format: functional
[15] = biological target: T5, Rac GTPase-activating protein 1 (Homo sapiens, UniProt Q9H0H5); experiment: MgcRacGAP GTPase-activating activity inhibitors, confirmation, biochemical, ADP Hunter fluorescence, primary and confirmatory (AID 624330); format: functional
T5 sequence (Q9H0H5 whole entry): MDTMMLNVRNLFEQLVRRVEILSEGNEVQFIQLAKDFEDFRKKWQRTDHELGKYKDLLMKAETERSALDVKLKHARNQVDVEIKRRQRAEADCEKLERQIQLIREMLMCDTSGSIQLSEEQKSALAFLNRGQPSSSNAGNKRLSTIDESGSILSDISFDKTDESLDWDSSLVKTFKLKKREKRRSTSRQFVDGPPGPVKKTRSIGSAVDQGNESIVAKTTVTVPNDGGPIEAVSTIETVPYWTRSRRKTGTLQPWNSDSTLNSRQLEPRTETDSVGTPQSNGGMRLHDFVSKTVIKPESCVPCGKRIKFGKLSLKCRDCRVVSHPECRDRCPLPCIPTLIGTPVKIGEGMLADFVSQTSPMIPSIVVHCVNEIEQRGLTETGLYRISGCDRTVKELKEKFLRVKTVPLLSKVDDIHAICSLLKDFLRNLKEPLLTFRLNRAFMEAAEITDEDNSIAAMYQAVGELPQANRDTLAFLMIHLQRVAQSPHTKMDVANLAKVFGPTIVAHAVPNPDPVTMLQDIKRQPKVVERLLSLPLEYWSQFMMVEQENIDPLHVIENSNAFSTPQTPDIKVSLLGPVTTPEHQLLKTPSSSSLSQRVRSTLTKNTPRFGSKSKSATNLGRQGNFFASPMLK

[16] = NIH-3T3 fibroblast cytotoxicity, dose response, cytotoxicity control, cell-based, fluorescence, Alamar Blue, secondary assay (AID 2327); format: functional;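 further: NIH-3T3 mouse fibroblasts cultured with fluconazole at 8 µg/mL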
[17] = C. albicans growth with fluconazole, confirmation, fluorescence, retest (AID 2467); format: functional, cell-based
[18] = growth suppression of PTEN-null colon cells, dose response, cell-based, HCT116 PTEN knockout (AID 1047); format: functional;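 further: HCT116 colon tumor cells with PTEN knocked out; cells exposed to compound for 60 hours before readout; potency for loss of cell viability measured by luminescence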
[19] = growth suppression of beta-catenin-knockout colon cells, dose response, cell-based, HCT116, human colon tumor (AID 1045); format: functional;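 further: HCT116 colon tumor cells with beta catenin knocked out; cells exposed to compound for 60 hours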
[20] = miR-122 activators in hepatoma reporter cells, dose response, cell-based, Huh7 psiCHECK-miR122, Renilla luciferase, cherry-picked (AID 651956); format: functional;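 further: huh7 hepatoma cells stably carrying a psiCHECK-2 miR-122 sensor plasmid; renilla luciferase signal reporting endogenous miR-122 activity after 48 h compound exposure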
[21] = HEK293T cytotoxicity, dose response, cytotoxicity control for miR-122 modulator project, cell-based, activator set, cherry-pick (AID 720690); format: functional;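 further: HEK293T human cells scored for general mammalian cytotoxicity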
[22] = biological target: T6, Corticotropin-releasing factor receptor 2/Corticotropin-releasing factor-binding protein (Homo sapiens, UniProt P24387+Q13324); experiment: Dose Response confirmation of uHTS hits for small molecule antagonists of the CRF-binding protein and CRF-R2 receptor complex.; format: functional; conditions: read-out: IC50_Mean
T6 sequence (Q13324 whole entry): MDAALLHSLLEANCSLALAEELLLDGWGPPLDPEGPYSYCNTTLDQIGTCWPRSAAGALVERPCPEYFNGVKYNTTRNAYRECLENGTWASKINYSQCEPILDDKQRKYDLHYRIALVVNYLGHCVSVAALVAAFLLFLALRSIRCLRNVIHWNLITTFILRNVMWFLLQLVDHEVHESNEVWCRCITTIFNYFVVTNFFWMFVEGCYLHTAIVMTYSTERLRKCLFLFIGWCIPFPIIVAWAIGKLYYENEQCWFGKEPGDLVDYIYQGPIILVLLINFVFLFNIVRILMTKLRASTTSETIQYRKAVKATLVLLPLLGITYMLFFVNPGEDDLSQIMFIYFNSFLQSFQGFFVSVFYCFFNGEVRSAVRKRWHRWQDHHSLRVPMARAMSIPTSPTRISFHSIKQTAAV
T6 sequence (P24387 whole entry): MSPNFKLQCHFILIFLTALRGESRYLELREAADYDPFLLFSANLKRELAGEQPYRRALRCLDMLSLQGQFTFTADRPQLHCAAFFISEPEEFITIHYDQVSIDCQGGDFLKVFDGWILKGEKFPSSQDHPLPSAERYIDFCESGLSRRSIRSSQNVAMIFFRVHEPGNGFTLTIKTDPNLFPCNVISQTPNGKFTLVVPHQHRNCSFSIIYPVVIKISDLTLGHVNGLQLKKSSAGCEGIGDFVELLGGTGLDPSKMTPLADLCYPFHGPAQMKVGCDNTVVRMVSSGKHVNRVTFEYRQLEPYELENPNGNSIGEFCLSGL

[23] = biological target: T6, Corticotropin-releasing factor receptor 2/Corticotropin-releasing factor-binding protein; experiment: activators of CRF receptor 2 with binding protein – uHTS hits, confirmation (AID 602473); format: functional; conditions: read-out: EC50_Mean
[24] = CRF-BP/CRF-R2 complex antagonists, dose response, cell-based, uHTS hits, 384-well (AID 651639); format: functional, Homo sapiens; conditions: read-out: IC50_Mean

T1 sequence (Q9P0U3 whole entry, the tested form may be a part): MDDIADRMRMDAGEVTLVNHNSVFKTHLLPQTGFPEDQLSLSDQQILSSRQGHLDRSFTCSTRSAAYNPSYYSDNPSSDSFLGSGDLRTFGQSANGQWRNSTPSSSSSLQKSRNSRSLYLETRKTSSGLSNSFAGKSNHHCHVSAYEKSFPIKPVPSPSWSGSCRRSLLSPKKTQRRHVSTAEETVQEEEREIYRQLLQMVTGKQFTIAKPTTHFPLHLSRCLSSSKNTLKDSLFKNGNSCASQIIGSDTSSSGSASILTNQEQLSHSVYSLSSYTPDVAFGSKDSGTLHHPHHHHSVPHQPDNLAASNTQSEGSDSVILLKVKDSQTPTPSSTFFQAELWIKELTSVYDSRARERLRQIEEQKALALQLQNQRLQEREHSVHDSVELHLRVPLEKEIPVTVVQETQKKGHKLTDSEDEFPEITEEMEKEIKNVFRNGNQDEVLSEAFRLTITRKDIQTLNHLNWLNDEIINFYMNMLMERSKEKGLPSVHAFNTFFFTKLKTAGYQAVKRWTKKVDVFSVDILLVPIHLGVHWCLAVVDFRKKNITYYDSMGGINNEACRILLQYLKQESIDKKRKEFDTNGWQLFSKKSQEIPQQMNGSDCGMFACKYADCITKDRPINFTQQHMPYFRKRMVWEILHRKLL
Broad substrate specificity ATP-binding cassette transporter ABCG2, sequence (Q9UNQ0 whole entry): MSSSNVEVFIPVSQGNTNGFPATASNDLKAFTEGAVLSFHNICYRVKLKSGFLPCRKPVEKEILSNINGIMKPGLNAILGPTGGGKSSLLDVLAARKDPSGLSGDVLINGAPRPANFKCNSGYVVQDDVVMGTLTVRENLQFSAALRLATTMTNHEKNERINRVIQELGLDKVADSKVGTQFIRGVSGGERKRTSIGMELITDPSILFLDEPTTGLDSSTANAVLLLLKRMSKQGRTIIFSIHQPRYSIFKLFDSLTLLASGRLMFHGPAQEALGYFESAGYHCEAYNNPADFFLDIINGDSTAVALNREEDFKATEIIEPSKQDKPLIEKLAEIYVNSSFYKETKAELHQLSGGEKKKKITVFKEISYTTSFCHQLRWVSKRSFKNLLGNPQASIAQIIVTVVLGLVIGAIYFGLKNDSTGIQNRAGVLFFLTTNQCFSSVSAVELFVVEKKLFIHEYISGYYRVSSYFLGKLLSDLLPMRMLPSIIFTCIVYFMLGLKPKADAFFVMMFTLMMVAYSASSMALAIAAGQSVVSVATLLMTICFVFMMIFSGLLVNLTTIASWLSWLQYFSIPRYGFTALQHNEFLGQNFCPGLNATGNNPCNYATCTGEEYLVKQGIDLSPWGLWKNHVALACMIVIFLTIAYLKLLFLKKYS
ADP-ribosylation factor GTPase-activating protein 1, sequence (Q62848 whole entry): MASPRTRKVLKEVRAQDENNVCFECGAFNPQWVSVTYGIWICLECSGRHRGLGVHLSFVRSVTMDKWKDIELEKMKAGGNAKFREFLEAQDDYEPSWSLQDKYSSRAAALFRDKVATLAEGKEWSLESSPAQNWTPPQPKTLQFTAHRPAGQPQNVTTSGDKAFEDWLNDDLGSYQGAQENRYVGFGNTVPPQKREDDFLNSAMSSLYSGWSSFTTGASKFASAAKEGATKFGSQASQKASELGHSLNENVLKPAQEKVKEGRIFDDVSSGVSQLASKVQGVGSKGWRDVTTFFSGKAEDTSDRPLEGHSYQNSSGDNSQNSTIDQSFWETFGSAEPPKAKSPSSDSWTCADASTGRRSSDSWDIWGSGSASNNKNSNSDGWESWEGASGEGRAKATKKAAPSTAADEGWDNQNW

Compound: CCOC(=O)/C=C/c1cc(F)ccc1O
- IC50 [1]: 13.8 µM (active)
- IC50 [2]: 11.2 µM (active)

Compound: O=C(Nc1ccc(-c2nc3ccccc3[nH]2)cc1)c1ccc2c(c1)OCO2
- IC50 [3]: 42 µM (inactive)

Compound: CC1=NN(c2ccc([N+](=O)[O-])cc2)C(=O)/C1=C/N(C)C
- EC50 [4]: 4 µM (active)

Compound: OC(CN1CCCCC1)Cn1c2ccc(Cl)cc2c2cc(Cl)ccc21 (stereo unspecified)
- EC50 [5]: 2.43 µM (active)
- CC50 [6]: 14.5 µM (active)
- EC50 [7]: 10.8 µM (active)
- IC50 [8]: 7.1 µM (active)
- AC50 [9]: 5.53 µM (active)
- IC50 [10]: 10.2 µM (active)
- AC50 [11]: 32.1 µM (active)
- AC50 [12]: 27.2 µM (active)
- AC50 [13]: 12.1 µM (active)

Compound: COc1cc(/C=N/NC(=O)CCn2c3ccccc3c3ccccc32)ccc1O
- CC50 [14]: 100 µM (active)
- IC50 [15]: 85.8 µM (active)

Compound: N=c1c2c(-c3ccccc3)c(-c3ccccc3)n(Cc3ccccc3)c2ncn1CCO
- EC50 [16]: > 150 µM (inactive)
- EC50 [17]: > 38 µM (not active)
- EC50 [5]: 2.42 µM (active)
- EC50 [18]: 0.555 µM (active)
- EC50 [7]: > 30 µM (not active)
- EC50 [19]: 0.637 µM (active)
- AC50 [20]: 30.5 µM (active)
- AC50 [21]: 23.4 µM (active)

Compound: CCN(Cc1ccccc1)C(c1cccc(C#N)c1)c1nnnn1C(C)(C)C (stereo unspecified)
- IC50 [22]: 1 µM (active)
- EC50 [23]: > 53 µM (inactive)
- IC50 [24]: 7.23 µM (active)

From ChEMBL document CHEMBL1201862, “PubChem BioAssay data set” (2004)
